Measured values: patent EP3046573B1, “AMYLIN ANALOGUES” (Zealand Pharma A/S, priority 2013, dated 2015)
Read-outs that look alike come from different tables or passages of the source. Numbered stars: 1 amine (or outer) side, 2 acyl side, 3 side chain; on linkers, the order of the positions; unused ones are H or OH. Bridge positions count the residues as written; N and C are the ends. Square brackets hold non-standard residues; d marks the D form. Peptide text beside a SMILES is read from it. * marks the point of attachment. C20 diacid = O=C(O)CCCCCCCCCCCCCCCCCCC(=O)*; γGlu = O=C(O)[C@H](CCC(=O)[*:2])N[*:1]; NMeI = CC[C@H](C)[C@H](NC)C(=O)O; Sar = CNCC(=O)O

Tests used:
[1] = Solubility assessment (turbidity absorbance at 325 nm); format: physicochemical; conditions: stock 2 mg/ml diluted 1:1, ambient temperature (typically 25°C), n=1; for Solubility, Acetate buffer pH 4: 100 mM acetate buffer pH 4.0; for Solubility, Acetate buffer pH 5: 100 mM acetate buffer pH 5.0; for Solubility, Histidine buffer pH 6: 100 mM histidine buffer pH 6.0; for Solubility, Histidine buffer pH 7: 100 mM histidine buffer pH 7.0; for Solubility, Phosphate buffer pH 6: 100 mM phosphate buffer pH 6.0; for Solubility, Phosphate buffer pH 7: 100 mM phosphate buffer pH 7.0; for Solubility, Phosphate buffer pH 7.5: 100 mM phosphate buffer pH7.5
Outline: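 Read-out: turbidity as absorbance at 325 nm (280 nm also read), single samples, ambient temperature of typically 25°C. Samples were a 1:1 mix of 2 mg/ml stock (water, pH 2.5) with 100 mM acetate, histidine or phosphate buffers spanning pH 4.0–7.5. Cut-off: A325 ≤ 0.02 indicates ≥ 1 mg/ml.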

[2] = biological target: T1, human calcitonin receptor (hCTR2) (Homo sapiens, UniProt P30988); experiment: hCTR2 assay: induction of cAMP (AlphaScreen cAMP Assay kit) in COS7 cells expressing hCTR2; format: cell-based
T1 construct: expressed in transfected cells
T1 sequence (P30988 25-474): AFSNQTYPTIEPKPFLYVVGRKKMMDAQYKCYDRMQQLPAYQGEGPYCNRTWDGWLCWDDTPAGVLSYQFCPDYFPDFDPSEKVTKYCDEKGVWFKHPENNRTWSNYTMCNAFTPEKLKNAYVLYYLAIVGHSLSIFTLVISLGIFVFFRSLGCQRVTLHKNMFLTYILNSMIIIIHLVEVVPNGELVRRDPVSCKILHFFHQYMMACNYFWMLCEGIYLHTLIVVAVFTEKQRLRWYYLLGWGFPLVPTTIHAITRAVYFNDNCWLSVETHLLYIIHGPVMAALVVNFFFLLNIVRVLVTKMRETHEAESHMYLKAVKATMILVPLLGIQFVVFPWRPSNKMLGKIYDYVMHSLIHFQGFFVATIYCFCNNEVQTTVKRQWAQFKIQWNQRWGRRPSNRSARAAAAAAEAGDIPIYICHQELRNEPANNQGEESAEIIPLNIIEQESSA
Outline: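 cAMP read-out by AlphaScreen after cell lysis; EC50 and % efficacy vs pramlintide from 4-parameter logistic fitting. Agonist stimulation: hCTR2-COS7 stable cells, 15 min, 37° C, 100 µM IBMX, 0.1% casein, Tyrode/HEPES pH 7.4.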

[3] = cAMP induction in COS7 cells expressing hCTR2, average of a minimum of 3 determinations, read-out: hCTR2 EC50

| Solubility, Acetate buffer pH 4 [1] | Solubility, Acetate buffer pH 5 [1] | Solubility, Histidine buffer pH 6 [1] | Solubility, Histidine buffer pH 7 [1] | Solubility, Phosphate buffer pH 6 [1] | Solubility, Phosphate buffer pH 7 [1] | Solubility, Phosphate buffer pH 7.5 [1] | EC50 [2, 3] [nM] | Structure (SMILES) | EC50 [2] [nM] |
| --- | --- | --- | --- | --- | --- | --- | --- | --- | --- |
| SS (SS indicates solubility ≥ 1mg/ml) | SS (SS indicates solubility ≥ 1mg/ml) | SS (SS indicates solubility ≥ 1mg/ml) | SS (SS indicates solubility ≥ 1mg/ml) | SS (SS indicates solubility ≥ 1mg/ml) | SS (SS indicates solubility ≥ 1mg/ml) | SS (SS indicates solubility ≥ 1mg/ml) | 0.1 | CC[C@H](C)[C@@H](C(=O)N[C@@H](CC(C)C)C(=O)N[C@@H](CO)C(=O)N[C@@H](CO)C(=O)N[C@H](C(=O)N[C@@H](CCC(=O)O)C(=O)N[C@H](C(=O)NCC(=O)N[C@@H](CO)C(=O)N[C@@H](CC(=O)O)C(=O)N[C@H](C(=O)N1CCC[C@H]1C(N)=O)[C@@H](C)O)C(C)C)[C@@H](C)O)N(C)C(=O)CN(C)C(=O)[C@H](Cc1ccccc1)NC(=O)[C@H](CO)NC(=O)[C@H](CO)NC(=O)[C@H](CCCNC(=N)N)NC(=O)[C@H](Cc1c[nH]cn1)NC(=O)[C@H](CC(C)C)NC(=O)[C@H](Cc1ccccc1)NC(=O)[C@H](CCC(=O)O)NC(=O)[C@H](C)NC(=O)[C@H](CC(C)C)NC(=O)[C@H](CCCNC(=N)N)NC(=O)[C@H](CCC(N)=O)NC(=O)[C@@H](NC(=O)[C@H](C)NC(=O)[C@@H]1CSSC[C@H](NC(=O)[C@H](CCCNC(=N)N)NC(=O)CC[C@H](NC(=O)CCCCCCCCCCCCCCCCCCC(=O)O)C(=O)O)C(=O)N[C@@H](CC(N)=O)C(=O)N[C@@H]([C@@H](C)O)C(=O)N[C@@H](C)C(=O)N[C@@H]([C@@H](C)O)C(=O)N1)[C@@H](C)O [Compound 79, [19CD]-isoGlu-RC()NTATC()ATQRLAEFLHRSSF-Gly(Me)-Ile(Me)-LSSTEVGSDTP-NH2] ({C20 diacid-γGlu}-RCNTATCATQRLAEFLHRSSF[Sar][NMeI]LSSTEVGSDTP-NH2; disulfide 2-7) |  |
| SS (SS indicates solubility ≥ 1mg/ml) | SS (SS indicates solubility ≥ 1mg/ml) | II (II indicates solubility ≤ 1 mg/ml) | SS (SS indicates solubility ≥ 1mg/ml) | SS (SS indicates solubility ≥ 1mg/ml) | SS (SS indicates solubility ≥ 1mg/ml) | SS (SS indicates solubility ≥ 1mg/ml) | 0.062 | CC[C@H](C)[C@@H](C(=O)N[C@@H](CC(C)C)C(=O)N[C@@H](CO)C(=O)N[C@@H](CO)C(=O)N[C@H](C(=O)N[C@@H](CC(=O)O)C(=O)N[C@H](C(=O)NCC(=O)N[C@@H](CO)C(=O)N[C@@H](CCC(=O)O)C(=O)N[C@H](C(=O)N1CCC[C@H]1C(N)=O)[C@@H](C)O)C(C)C)[C@@H](C)O)N(C)C(=O)[C@H](C)NC(=O)CN(C)C(=O)[C@H](Cc1ccccc1)NC(=O)[C@H](CO)NC(=O)[C@H](CO)NC(=O)[C@H](CCCNC(=N)N)NC(=O)[C@H](Cc1c[nH]cn1)NC(=O)[C@H](CC(C)C)NC(=O)[C@H](Cc1ccccc1)NC(=O)[C@H](CCC(=O)O)NC(=O)[C@H](C)NC(=O)[C@H](CC(C)C)NC(=O)[C@H](CCCNC(=N)N)NC(=O)[C@H](CCC(N)=O)NC(=O)[C@@H](NC(=O)[C@H](C)NC(=O)[C@@H]1CSSC[C@H](NC(=O)[C@H](CCCNC(=N)N)NC(=O)CC[C@H](NC(=O)CCCCCCCCCCCCCCCCCCC(=O)O)C(=O)O)C(=O)N[C@@H](CC(N)=O)C(=O)N[C@@H]([C@@H](C)O)C(=O)N[C@@H](C)C(=O)N[C@@H]([C@@H](C)O)C(=O)N1)[C@@H](C)O [Compound 80, [19CD]-isoGlu-RC()NTATC()ATQRLAEFLHRSSF-Gly(Me)-A-Ile(Me)-LSSTDVGSETP-NH2] ({C20 diacid-γGlu}-RCNTATCATQRLAEFLHRSSF[Sar]A[NMeI]LSSTDVGSETP-NH2; disulfide 2-7) |  |
| SS (SS indicates solubility ≥ 1mg/ml) | SS (SS indicates solubility ≥ 1mg/ml) | SS (SS indicates solubility ≥ 1mg/ml) | SS (SS indicates solubility ≥ 1mg/ml) | SS (SS indicates solubility ≥ 1mg/ml) | SS (SS indicates solubility ≥ 1mg/ml) | SS (SS indicates solubility ≥ 1mg/ml) | 0.057 | CC[C@H](C)[C@@H](C(=O)N[C@@H](CC(C)C)C(=O)N[C@@H](CO)C(=O)N[C@@H](CO)C(=O)N[C@H](C(=O)N[C@@H](CC(=O)O)C(=O)N[C@H](C(=O)NCC(=O)N[C@@H](CO)C(=O)N[C@@H](CC(=O)O)C(=O)N[C@H](C(=O)N1CCC[C@H]1C(N)=O)[C@@H](C)O)C(C)C)[C@@H](C)O)N(C)C(=O)[C@H](C)NC(=O)CN(C)C(=O)[C@H](Cc1ccccc1)NC(=O)[C@H](CO)NC(=O)[C@H](CO)NC(=O)[C@H](CCCNC(=N)N)NC(=O)[C@H](Cc1c[nH]cn1)NC(=O)[C@H](CC(C)C)NC(=O)[C@H](Cc1ccccc1)NC(=O)[C@H](CCC(=O)O)NC(=O)[C@H](C)NC(=O)[C@H](CC(C)C)NC(=O)[C@H](CCCNC(=N)N)NC(=O)[C@H](CCC(N)=O)NC(=O)[C@@H](NC(=O)[C@H](C)NC(=O)[C@@H]1CSSC[C@H](NC(=O)[C@H](CCCNC(=N)N)NC(=O)CC[C@H](NC(=O)CCCCCCCCCCCCCCCCCCC(=O)O)C(=O)O)C(=O)N[C@@H](CC(N)=O)C(=O)N[C@@H]([C@@H](C)O)C(=O)N[C@@H](C)C(=O)N[C@@H]([C@@H](C)O)C(=O)N1)[C@@H](C)O [Compound 81, [19CD]-isoGlu-RC()NTATC()ATQRLAEFLHRSSF-Gly(Me)-A-Ile(Me)-LSSTDVGSDTP-NH2] ({C20 diacid-γGlu}-RCNTATCATQRLAEFLHRSSF[Sar]A[NMeI]LSSTDVGSDTP-NH2; disulfide 2-7) |  |

| Structure (SMILES) | Solubility, Acetate buffer pH 4 [1] | Solubility, Acetate buffer pH 5 [1] | Solubility, Histidine buffer pH 6 [1] | Solubility, Histidine buffer pH 7 [1] | Solubility, Phosphate buffer pH 6 [1] | Solubility, Phosphate buffer pH 7 [1] | Solubility, Phosphate buffer pH 7.5 [1] | EC50 [2, 3] [nM] | EC50 [2] [nM] |
| --- | --- | --- | --- | --- | --- | --- | --- | --- | --- |
| CC[C@H](C)[C@@H](C(=O)N[C@@H](CC(C)C)C(=O)N[C@@H](CO)C(=O)N[C@@H](CO)C(=O)N[C@H](C(=O)N[C@@H](CC(N)=O)C(=O)N[C@H](C(=O)NCC(=O)N[C@@H](CO)C(=O)N[C@@H](CC(N)=O)C(=O)N[C@H](C(=O)N1CCC[C@H]1C(N)=O)[C@@H](C)O)C(C)C)[C@@H](C)O)N(C)C(=O)[C@H](C)NC(=O)CN(C)C(=O)[C@H](Cc1ccccc1)NC(=O)[C@H](CC(N)=O)NC(=O)[C@H](CC(N)=O)NC(=O)[C@H](CO)NC(=O)[C@H](CO)NC(=O)[C@H](CCCNC(=N)N)NC(=O)[C@H](Cc1c[nH]cn1)NC(=O)[C@H](CC(C)C)NC(=O)[C@H](Cc1ccccc1)NC(=O)[C@H](CCC(=O)O)NC(=O)[C@H](C)NC(=O)[C@H](CC(C)C)NC(=O)[C@H](CCCNC(=N)N)NC(=O)[C@H](CCC(N)=O)NC(=O)[C@@H](NC(=O)[C@H](C)NC(=O)[C@@H]1CSSC[C@H](NC(=O)[C@H](CCCNC(=N)N)NC(=O)[C@H](Cc2c[nH]cn2)NC(=O)CC[C@H](NC(=O)CCCCCCCCCCCCCCCCCCC(=O)O)C(=O)O)C(=O)N[C@@H](CC(N)=O)C(=O)N[C@@H]([C@@H](C)O)C(=O)N[C@@H](C)C(=O)N[C@@H]([C@@H](C)O)C(=O)N1)[C@@H](C)O [Compound 85, [19CD]-isoGlu-HRC()NTATC()ATQRLAEFLHRSSNNF-Gly(Me)-A-Ile(Me)-LSSTNVGSNTP-NH2] ({C20 diacid-γGlu}-HRCNTATCATQRLAEFLHRSSNNF[Sar]A[NMeI]LSSTNVGSNTP-NH2; disulfide 3-8) | SS (SS indicates solubility ≥ 1mg/ml) | SS (SS indicates solubility ≥ 1mg/ml) | SS (SS indicates solubility ≥ 1mg/ml) | SS (SS indicates solubility ≥ 1mg/ml) | SS (SS indicates solubility ≥ 1mg/ml) | SS (SS indicates solubility ≥ 1mg/ml) | SS (SS indicates solubility ≥ 1mg/ml) |  | 0.083 |
